Results: patent US20110294734A1, “PHARMACEUTICAL COMPOSITIONS COMPRISING TGF-BETA 1 INHIBITOR PEPTIDES” (DIGNA BIOTECH, S.L., priority 2009, published 2011)
Where two headings read alike, the source gives them in different places. No end group written: not given here.

Assay: Solubility study of P144
Format: physicochemical

For “TSLDASIIWAMMQN [Formula P144, TSLDASIIWAMMQN]”, the Solubility (Dicloromethane (DCM)) was “insoluble”, the Solubility (Dimethyl sulfoxide (DMSO)) was “very soluble” and the Solubility (Dimethylformamide (DMF)) was “insoluble”. The Solubility (Ethanol) was “insoluble”, the Solubility (Gantrez ® S97 2-5%) was “insoluble” and the Solubility (Glycerol) was “insoluble”. For the same sequence, the Solubility (Hexane) was “insoluble”, the Solubility (Human albumin 20%, read-out: Solubility) was 250 µg/mL and the Solubility (Hydroxy-propyl-β-cyclodextrin 5%, read-out: Solubility) was 250 µg/mL. The Solubility (PEG 400) was “insoluble”, the Solubility (PLASDONE 5%) was “insoluble” and the Solubility (Pluronic F68 (1-10%)) was “insoluble”. For the same sequence, the Solubility (Proplylene glycol) was “insoluble”, the Solubility (Sodium deoxycholate 5%) was “insoluble” and the Solubility (Tetrahydrofurane (THF)) was “insoluble”. The Solubility (Urea 10%, read-out: Solubility) was 250 µg/mL and the Solubility (distilled water) was “insoluble”.
